Measured values: PMC10739246 (ACS Bio & Med Chem Au, 2023)
Values after ≈ are worked out from the molar mass of the structure shown. “Also recorded” adds a separate entry of the source. Where two headings read alike, the source gives them in different places.

Experiments:
[1] = tested on: PonA in B. subtilis TNVS45; test: PonA localization; conditions: 1x MIC, 30 min (vancomycin) or 1 h
[2] = tested on: B. subtilis DSM402; test: microbe, parasite or virus in culture; conditions: Bacillus subtilis, DSM402, read-out: concentration (MIC against B. subtilis DSM402)
[3] = tested on: K. pneumoniae (ATCC 10031); test: MIC, K. pneumoniae ATCC 10031; assay type: cell-based, Klebsiella pneumoniae; conditions: Klebsiella pneumoniae, ATCC10031
[4] = tested on: S. aureus (CCUG1800T); test: MIC, microdilution, S. aureus CCUG1800T; assay type: cell-based, Staphylococcus aureus; conditions: Staphylococcus aureus
[5] = tested on: S. aureus (ATCC 43300) MRSA; test: MIC, microdilution, MRSA ATCC 43300; assay type: cell-based, Staphylococcus aureus; conditions: Staphylococcus aureus; norfloxacin-resistant strain
[6] = tested on: M. tuberculosis (MC26020); test: microbe, parasite or virus in culture; assay type: cell-based, Mycobacterium tuberculosis; conditions: Mycobacterium tuberculosis, read-out: MIC M. tuberculosis (MC26020)
[7] = tested on: B. subtilis DSM402; test: Bacterial cytological profiling (BCP) in B. subtilis DSM402; assay type: cell-based, Bacillus subtilis; conditions: for DAPI / phase contrast / FM4-64: 1x MIC, 1 h; for DAPI: DNA condensation; for phase contrast: indicates cell lysis; for FM4-64: membrane stain; for gyrase inhibition / membrane damage: interpretation of BCP in B. subtilis
[8] = tested on: PbpB in B. subtilis EKB46; test: PbpB localization; conditions: 1x MIC, 30 min (vancomycin) or 1 h
[9] = tested on: E. faecalis (ATCC 19433); test: MIC, E. faecalis ATCC 19433; assay type: cell-based, Enterococcus faecalis; conditions: Enterococcus faecalis, ATCC19433
[10] = tested on: E. coli W3110; test: Bacterial cytological profiling (BCP) in E. coli W3110; assay type: cell-based, Escherichia coli; conditions: for DAPI / phase contrast / FM4-64: 1x MIC, 1 h; for DAPI: DNA condensation; for phase contrast: indicates cell lysis; for FM4-64: membrane stain; for gyrase inhibition / membrane damage: interpretation of BCP in E. coli
[11] = tested on: B. subtilis DSM402; test: Peptidoglycan integrity assay (acetic acid/methanol fixation); conditions: 1x MIC; 30 min (cell wall inhibitors) or 60 min
[12] = tested on: MreB in B. subtilis MW10; test: MreB mobility assay; assay type: cell-based, Bacillus subtilis; conditions: B. subtilis MW10, 1 h of antibiotic exposure
Protocol: MreB is an actin homologue that forms filamentous structures along the lateral axis of the cell. It moves along the length of the cells in a spiraling pattern thereby driving lateral peptidoglycan synthesis.[36],[37] MreB mobility is sensitive to inhibition of peptidoglycan synthesis and so far, every cell wall synthesis inhibitor we tested abolished MreB movement (see Figure S70 for examples).
Expression of msfGFP-MreB was induced with 0.3% xylose. Pictures were taken after 1 h of antibiotic exposure. Two images of the same field of view were recorded 30 s apart and overlaid in ImageJ to visualize MreB mobility. A perfect overlap (yellow) indicates stalled MreB movement, while distinct red and green foci are indicative of MreB mobility. Scale bar 2 μm.
Fig. S70: MreB motility in B. subtilis MW10 after treatment with different cell wall synthesis inhibitors. Expression of GFP-MreB was induced with 0.3% xylose. Cells were treated with 1x […]
Two images of the same field of view were recorded 30 sec apart and overlaid in ImageJ to visualize MreB mobility. A perfect overlap (yellow) indicates stalled MreB movement while distinct red and green spots are indicative of MreB mobility. Scale bar 2 µm.

[13] = tested on: cell wall biosynthesis in B. subtilis DSM402; test: Summary of cell wall synthesis experiments; assay type: cell-based, Bacillus subtilis
[14] = tested on: E. coli BCB472; test: GlpT localization (inner membrane) in E. coli BCB472; conditions: 1x MIC, 1 h; GFP-tagged membrane protein
[15] = tested on: MraY in B. subtilis TNVS284; test: MraY localization; conditions: 1x MIC, 30 min (vancomycin) or 1 h
[16] = tested on: B. subtilis DSM402; conditions: Table 2; cells treated with 1x MIC
[17] = in vitro; conditions: human
[18] = tested on: E. coli (W3110); test: MIC, microdilution, E. coli W3110; assay type: cell-based, Escherichia coli; conditions: Escherichia coli
[19] = tested on: E. coli; conditions: for Outcome: checkerboard with mupirocin; for FICM (MICMcheckerboard/MICM): mupirocin alone 64 µg/mL
[20] = tested on: P. aeruginosa (PAO1); test: MIC, microdilution, P. aeruginosa PAO1; assay type: cell-based, Pseudomonas aeruginosa; conditions: Pseudomonas aeruginosa, PAO1
[21] = tested on: E. coli; test: microbe, parasite or virus in culture; conditions: Escherichia coli, read-out: MICC (MIC of the test compound alone)
[22] = tested on: norfloxacin-resistant clinical isolate of E. coli; test: MIC, microdilution, norfloxacin-resistant clinical isolate of E. coli; assay type: cell-based, Escherichia coli; conditions: Escherichia coli, read-out: MIC E. coli (norfloxacin-resistant strain)
[23] = tested on: MurG in B. subtilis TNVS175; test: MurG localization; assay type: cell-based, Bacillus subtilis; conditions: for protein localization MurG: 1x MIC, 30 min (vancomycin) or 1 h
[24] = target: T1, E. coli DNA gyrase (Escherichia coli, UniProt P0AES4+P0AES6); test: In vitro DNA gyrase cleavage assay; assay type: biochemical
T1 construct: purchased Inspiralis
T1 sequence (P0AES4 whole entry, one chain of several): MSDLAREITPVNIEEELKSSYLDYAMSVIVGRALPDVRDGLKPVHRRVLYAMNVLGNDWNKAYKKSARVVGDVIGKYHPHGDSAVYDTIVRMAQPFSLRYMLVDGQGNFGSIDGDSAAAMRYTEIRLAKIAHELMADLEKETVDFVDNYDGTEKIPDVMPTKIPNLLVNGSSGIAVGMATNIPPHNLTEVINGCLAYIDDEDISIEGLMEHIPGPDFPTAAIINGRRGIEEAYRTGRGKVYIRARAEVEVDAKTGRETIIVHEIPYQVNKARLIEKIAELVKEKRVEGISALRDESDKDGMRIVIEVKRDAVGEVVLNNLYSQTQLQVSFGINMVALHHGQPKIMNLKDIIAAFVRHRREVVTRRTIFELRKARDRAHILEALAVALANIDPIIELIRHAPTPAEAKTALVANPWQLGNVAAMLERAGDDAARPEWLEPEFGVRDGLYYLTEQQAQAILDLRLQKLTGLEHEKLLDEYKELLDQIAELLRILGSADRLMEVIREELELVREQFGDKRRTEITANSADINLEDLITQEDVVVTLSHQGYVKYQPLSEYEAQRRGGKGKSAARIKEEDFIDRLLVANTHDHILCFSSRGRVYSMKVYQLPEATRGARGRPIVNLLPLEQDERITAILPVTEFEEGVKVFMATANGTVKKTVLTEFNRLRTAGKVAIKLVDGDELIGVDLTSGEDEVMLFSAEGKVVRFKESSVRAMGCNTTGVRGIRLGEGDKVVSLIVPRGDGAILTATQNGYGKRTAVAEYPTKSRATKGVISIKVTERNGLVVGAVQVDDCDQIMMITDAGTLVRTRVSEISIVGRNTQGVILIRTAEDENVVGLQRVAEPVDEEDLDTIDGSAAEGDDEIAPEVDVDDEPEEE

[25] = target: T2, E. coli topoisomerase IV (Escherichia coli, UniProt P0AFI2+P20083); test: In vitro topoisomerase IV cleavage assay; assay type: biochemical; conditions: read-out: % topoisomerase IV inhibition
T2 construct: purchased Inspiralis
T2 sequence (P0AFI2 whole entry): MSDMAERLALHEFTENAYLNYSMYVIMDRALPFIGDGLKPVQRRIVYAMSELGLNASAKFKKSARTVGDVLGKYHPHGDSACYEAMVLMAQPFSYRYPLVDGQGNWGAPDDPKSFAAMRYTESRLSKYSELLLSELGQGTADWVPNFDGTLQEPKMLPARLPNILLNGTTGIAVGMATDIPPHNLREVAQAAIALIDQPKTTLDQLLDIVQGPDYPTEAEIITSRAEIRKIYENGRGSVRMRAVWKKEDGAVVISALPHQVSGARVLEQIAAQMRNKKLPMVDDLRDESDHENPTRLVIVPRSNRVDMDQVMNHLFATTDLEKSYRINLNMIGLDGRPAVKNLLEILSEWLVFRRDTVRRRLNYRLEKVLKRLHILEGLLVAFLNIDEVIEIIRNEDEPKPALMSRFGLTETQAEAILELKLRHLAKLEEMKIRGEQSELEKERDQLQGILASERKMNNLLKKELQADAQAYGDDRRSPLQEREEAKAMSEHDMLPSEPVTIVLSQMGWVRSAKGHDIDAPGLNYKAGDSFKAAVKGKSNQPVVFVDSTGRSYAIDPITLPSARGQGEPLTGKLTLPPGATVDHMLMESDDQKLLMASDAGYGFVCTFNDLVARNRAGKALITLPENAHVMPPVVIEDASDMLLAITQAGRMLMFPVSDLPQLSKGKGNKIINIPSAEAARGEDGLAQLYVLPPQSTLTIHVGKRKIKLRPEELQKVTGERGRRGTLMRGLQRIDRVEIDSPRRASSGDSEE
T2 sequence (P20083 whole entry): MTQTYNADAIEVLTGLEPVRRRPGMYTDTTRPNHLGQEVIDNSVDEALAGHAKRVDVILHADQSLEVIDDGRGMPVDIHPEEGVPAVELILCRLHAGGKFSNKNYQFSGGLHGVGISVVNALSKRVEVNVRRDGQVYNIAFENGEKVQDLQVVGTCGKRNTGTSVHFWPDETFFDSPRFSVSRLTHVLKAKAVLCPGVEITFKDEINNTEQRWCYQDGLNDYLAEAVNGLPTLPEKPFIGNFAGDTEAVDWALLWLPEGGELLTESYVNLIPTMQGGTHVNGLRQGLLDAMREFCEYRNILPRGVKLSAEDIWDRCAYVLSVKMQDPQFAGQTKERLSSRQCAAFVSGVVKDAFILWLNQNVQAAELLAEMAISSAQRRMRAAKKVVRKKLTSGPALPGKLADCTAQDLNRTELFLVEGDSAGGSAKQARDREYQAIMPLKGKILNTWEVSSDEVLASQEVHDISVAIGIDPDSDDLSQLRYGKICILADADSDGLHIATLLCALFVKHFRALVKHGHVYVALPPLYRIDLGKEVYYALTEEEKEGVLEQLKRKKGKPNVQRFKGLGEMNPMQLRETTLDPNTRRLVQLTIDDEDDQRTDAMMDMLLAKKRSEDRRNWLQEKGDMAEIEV

[26] = read-out: MIC S. aureus (CCUG1800T)
[27] = read-out: concentration (MIC against E. coli W3110)
[28] = Gram-negative strain, average of duplicate experiments, read-out: MIC E. coli (W3110)

SMILES | protein localization PonA [1] | MIC [2] [µM] | MIC [3] [µM] | MIC [4, 26] [µM] | MIC [5] [µM] | MIC [6] [µM] | DAPI [7] | phase contrast [7] | FM4-64 [7] | gyrase inhibition [7] | membrane damage [7] | protein localization PbpB [8] | MIC [9] [µM] | DAPI [10] | phase contrast [10] | FM4-64 [10] | gyrase inhibition [10] | membrane damage [10] | PG integrity [11] | MreB mobility [12] | further results
O=C(O)c1cn(C2CC2)c2cc(N3CCNCC3)c(F)cc2c1=O [Cip, ciprofloxacin, reference compound] | septal | 3.01 (≈ 0.997 µg/mL) | 7.54 (≈ 2.5 µg/mL) | 3.01 (≈ 0.997 µg/mL) | 96.6 (≈ 32 µg/mL) | 2.26 (≈ 0.749 µg/mL) | condensed | dark | few patches | yes | possibly | smooth | 6.03 (≈ 2 µg/mL) | condensed | dark | smooth | yes | no | intact | mobile | MreB mobility ([12]; listed as ciprofloxacin): did not affect either MreB mobility or localization; CWB inhibited? [13]: no; GlpT [14]: smooth; protein localization MraY [15]: rough
CCn1cc(C(=O)O)c(=O)c2cc(F)c(N3CCNCC3)cc21 [Nor, norfloxacin, reference compound] | septal/patchy | 18.1 (≈ 5.78 µg/mL) | 9.39 (≈ 3 µg/mL) | 3.13 (≈ 1 µg/mL) | 100 (≈ 32 µg/mL) | 1.56 (≈ 0.498 µg/mL) | condensed | dark | few patches | yes | possibly | smooth | 4.69 (≈ 1.5 µg/mL) | condensed | dark | smooth | yes | no | intact | mobile with static foci | protein localization PonA ([1]; listed as norfloxacin): accumulation in distinct foci at the cell membrane; μM (concentration used, 1x MIC) [16]: 18.11 µM; protein localization PbpB ([8]; listed as norfloxacin): no effect on the other two proteins; IC50 at 24 h [17]: 48.2 ± 3.92 µM; MIC [18, 27]: 0.37 µM; MIC [18, 28]: 0.39 µM; Outcome [19]: additive (>0.5 to ≤4.0 as additive (no interaction)); FICM (MICMcheckerboard/MICM) [19]: 0.5; MIC [20]: 6.26 µM (≈ 2 µg/mL); MreB mobility ([12]; listed as norfloxacin): the same effect was observed; CWB inhibited? [13]: no; MIC [21]: 0.125 µg/mL; MIC ([22]; norfloxacin-resistant clinical isolate): 50.1 µM (≈ 16 µg/mL); protein localization MurG [23]: smooth/spotty; protein localization MurG ([23]; listed as norfloxacin): mostly smooth phenotype; larger MurG clusters ([23]; quantification of microscopy images): up to 30%; GlpT [14]: smooth; protein localization MraY [15]: rough; protein localization MraY ([15]; listed as norfloxacin): no effect on the other two proteins; inhibition at 10 µM [24]: 73.6%
CCn1cc(C(=O)O)c(=O)c2cc(F)c(N3CCN(CNc4ccc([N+](=O)[O-])cc4)CC3)cc21 [compound 21] | neither compound affected the localization; also recorded: septal | 2.13 (≈ 1 µg/mL) | 4.26 (≈ 2 µg/mL) | 2.13 (≈ 1 µg/mL) | 34.1 (≈ 16 µg/mL) | 6.39 (≈ 3 µg/mL) | condensed | dark | smooth | yes | no | neither compound affected the localization; also recorded: smooth | 2.13 (≈ 1 µg/mL) | condensed | dark | Smooth | yes | no | came close to the cutoff value; also recorded: Intact | much smaller clusters and more clusters per cell; also recorded: mobile with static foci | inhibition at 10 µM [25]: 45.5%; MIC ([4]; Tab. S10, DNA gyrase side, strain not given, values equal S. aureus CCUG1800T of Table 1, read-out: MIC): 2.13 µM (≈ 1 µg/mL); μM (concentration used, 1x MIC) [16]: 2.13 µM; MIC [18, 27]: 0.266 µM; MIC ([18]; E. coli W3110, converted from 0.266 μM, read-out: MIC): 0.125 µg/mL; MIC [18, 28]: 0.266 µM; MIC ([18]; Tab. S10, topoisomerase IV side, strain not given, values equal E. coli W3110 of Table 1, read-out: MIC): 0.266 µM; FICC (fractional inhibitory concentration of the test compound) ([19]; MICCcheckerboard/MICC): 0.0039; Outcome [19]: additive (>0.5 to ≤4.0 as additive (no interaction)); FICM (MICMcheckerboard/MICM) [19]: 1; FICI (fractional inhibitory concentration index) ([19]; with mupirocin, FICC+FICM): 1.004; MIC [20]: 2.13 µM (≈ 1 µg/mL); CWB inhibited? [13]: yes ^b; MIC [21]: 0.125 µg/mL; MIC [22]: 17 µM (≈ 8 µg/mL); protein localization MurG [23]: only visible in the proximity of the cell poles; also recorded: polar spotty; GlpT [14]: Smooth; protein localization MraY [15]: neither compound affected the localization; also recorded: rough; inhibition at 10 µM [24]: 77.9%
